Test results reported in US11434212B2, “Bicyclic compound as a caspase inhibitor” (CHIA TAI TIANQING PHARMACEUTICAL GROUP CO., LTD., priority 2017, dated 2022).
Entries after “also recorded” stand apart in the source; their conditions may differ.

What was measured:
[1] = Mouse pharmacokinetic study in plasma and liver after oral administration; format: in vivo, male C57BL/6J mice
Excerpt: This experiment intended to investigate the pharmacokinetics in plasma and liver of male C57BL/6J mice after oral administration of the compounds.
Mice were randomly divided into three groups (3 male mice per group). The compound was formulated into the specified formulation. Oral formulations may be clear or uniform suspensions. Animals were intragastrically administered with a given dose of the preparation, respectively.
Whole blood samples were collected from animals through jugular vein puncture at 3 time points of 30 minutes, 2 hours, and 6 hours after administration, approximately 25 μL per sample; while the liver was collected at each time point.
The plasma samples were added to centrifuge tubes containing anticoagulant, and centrifuged at 4° C., 3000 g for 15 min, and the supernatant plasma was taken and quickly frozen on dry ice and then stored in a refrigerator at −70±10° C. until LC-MS/MS analysis was performed.
The blood outside the liver was sopped up with absorbent paper, and the weight of the liver was weighed, and then placed in liquid nitrogen to freeze. MeOH/15 mM PBS (1:2) at a volume-weight ratio of 1:5 was added thereto, and then the homogenization was performed at 14000 rpm for 2 minutes. It was then stored in a refrigerator at −70±10° C. until LC-MS/MS analysis was performed.
The plasma drug concentration data for the compounds were processed with the non-compartment model using WinNonlin™ Version 6.3.0 (Pharsight, Mountain View, Calif.) pharmacokinetic software. The maximal concentration (Cmax), maximal concentration time (Tmax) and quantitative end time were directly obtained from the plasma concentration-time chart.
The following pharmacokinetic parameters were calculated by using logarithmic linear trapezoidal method: elimination phase half-life (T1/2); the in vivo mean residence time of the drug from point 0 to the last time point (MRT0-last); the in vivo mean residence time of the drug from point 0 to infinite time (MRT0-ifn); the area under time-plasma concentration curve from point 0 to the last time point (AUC0-last); the area under time-plasma concentration curve from point 0 to infinite time (AUC0-inf).
For individual plasma concentrations less than BQL, the one occurred before Tmax was calculated as 0, and the one occurred after Tmax was directly excluded. All parameters and ratios were reported in the forms of three significant digits.
The pharmacokinetic parameters of this experiment were calculated according to the theoretical blood collection times and the theoretical administration concentrations in the protocol. The deviations between the actual administration concentrations and the theoretical concentrations were within the range of ±20%. The deviations between the actual blood collection times and the theoretical blood collection times were in conformity with the relevant SOP (the points within 1 hour after administration were within the range of ±1 min, and the others were within 5% of the theoretical time).

[2] = test system: CCl4-induced chronic liver fibrosis model; assay: Pharmacodynamic study in CCl4-induced chronic liver fibrosis model; format: in vivo, male C57BL/6 mice; set-up: Total score of liver injury / Ballooning change score: scale not given here; settings: for Ballooning change score / Inflammatory cell infiltration / Percentage of liver fibrosis / Total score of liver injury: p.o., bid, 28 days, mean ± sem
Experimental: The therapeutic effects of the test compound IDN-6556 and the compound of Example 1 in the CCl4-induced chronic liver fibrosis model of male C57BL/6 mice were tested.
Male C57BL/6 mice were randomly divided into 7 groups: pseudo model group (group 1), model group (group 2, solvent p.o., q.d), IDN-6556 (group 3, 3 mg/kg, p.o., bid), IDN-6556 (group 4, 10 mg/kg, p.o., bid), Example 1 (group 5, 3 mg/kg, p.o., bid), Example 1 (group 6, 10 mg/kg, p.o., bid)), Example 1 (group 7, 20 mg/kg, p.o., bid). CCl4 was formulated into a CCl4-olive oil mixed solution according to the doses by using olive oil, modeling is performed by orally administration three times a week for 4 weeks; and the pseudo model group was orally administered with the same volume of olive oil alone. Compounds were orally administrated from the day of modeling, twice a day for 28 days, while the pseudo model group and the model group were orally administered with an equal volume of drug solvent. On the next day after the last administration, the animals were fasted for 6 hours, followed by euthanizing, and the livers were collected. Liver tissues were fixed in 10% formalin solution for histopathological analysis.

[3] = target: T1, Caspase-8 (Homo sapiens, UniProt Q14790); assay: In vitro inhibitory activity on Caspase-8 (BioVision Caspase-8 Inhibitor Screening Kit); format: biochemical; settings: fluorogenic substrate 50 μM; test concentrations 1000 nM to 0.32 nM
T1 construct: purchased BioVision K158-100
Experimental: (§1) Caspase Inhibitor Screening Kit for BioVision was used in this experiment to test the inhibitory activity of the test compounds on Caspase.
Caspase-8 Inhibitor Screening Kit (BioVision #K158-100)
(§2) Note: Each caspase enzymatic experiment uses the reagents in corresponding kit thereof. Each enzyme was dissolved in 550 μl of the corresponding 2× reaction buffer, sub-packed and stored at −80° C., respectively.
(§3) 1) The compound was diluted to a 200*test concentration with DMSO via the multiple dilution, then to a 2*test concentration with ddH2O, and added to a 384-well experimental plate at 12.5 μl per well. Test compounds and control compounds were tested at 6 concentration points, test concentrations ranging from 1000 nM to 0.32 nM. The ddH2O containing 1% DMSO was added to the 0% inhibition control well, and a high concentration of the control compound was added to the 100% inhibition control well (final concentration: 5 μM).
(§4) 2) 2× reaction buffer containing 10 mM DTT was prepared. The enzyme caspase stock solution was diluted 5-fold with 2× reaction buffer containing 10 mM DTT and added to a 384-well experimental plate at 6.25 μl per well. After being mixed, the enzyme and compounds were incubated at 37° C. for 30 minutes.
(§5) 3) The fluorogenic substrate of the enzyme caspase was diluted 5-fold with 2× reaction buffer containing 10 mM DTT, and then added to a 384-well experimental plate at 6.25 μl per well. The total reaction volume was 25 μl, the final concentration of the substrate was 50 μM, and the final concentration of DMSO was 0.5%. After the substrate was added, the 384-well experimental plate was incubated at 37° C. for 30 minutes.
(§6) 4) The fluorescence intensity (excitation light wavelength was 400 nm, emission light wavelength was 505 nm) was measured by using a multi-function microplate reader. Fluorescence intensity was used to calculate the inhibitory effect of the compounds on Caspase. GraphPad Prism software was used for fitting compound inhibition curves and calculating IC50 values.

[4] = target: T2, Caspase-3 (Homo sapiens, UniProt P42574); assay: In vitro inhibitory activity on Caspase-3 (BioVision Caspase-3 Inhibitor Screening Kit); format: biochemical; settings: fluorogenic substrate 50 μM; test concentrations 1000 nM to 0.32 nM
T2 construct: purchased BioVision K153-100
T2 sequence (P42574 29-175 limits assumed): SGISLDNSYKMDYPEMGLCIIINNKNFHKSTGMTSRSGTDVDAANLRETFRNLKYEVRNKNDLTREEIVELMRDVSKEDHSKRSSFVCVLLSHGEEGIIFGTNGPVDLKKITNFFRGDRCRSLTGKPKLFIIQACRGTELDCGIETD
T2 sequence (P42574 176-277 limits assumed): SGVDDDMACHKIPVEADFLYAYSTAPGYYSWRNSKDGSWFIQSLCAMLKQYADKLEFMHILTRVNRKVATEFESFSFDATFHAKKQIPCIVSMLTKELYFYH
Experimental: as §1
Caspase-3 Inhibitor Screening Kit (BioVision #K153-100)
as §2, §3, §4, §5, §6

[5] = target: T3, Caspase-1 (Homo sapiens, UniProt P29466); assay: In vitro inhibitory activity on Caspase-1 (BioVision Caspase-1 Inhibitor Screening Kit); format: biochemical; settings: fluorogenic substrate 50 μM; test concentrations 1000 nM to 0.32 nM
T3 construct: purchased BioVision K151-100
T3 sequence (P29466 120-297 limits assumed): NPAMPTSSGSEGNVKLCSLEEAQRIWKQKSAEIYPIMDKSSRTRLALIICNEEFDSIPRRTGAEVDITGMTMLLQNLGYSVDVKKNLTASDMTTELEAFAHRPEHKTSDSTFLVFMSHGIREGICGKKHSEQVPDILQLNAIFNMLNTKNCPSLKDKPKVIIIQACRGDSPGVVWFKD
T3 sequence (P29466 317-404 limits assumed): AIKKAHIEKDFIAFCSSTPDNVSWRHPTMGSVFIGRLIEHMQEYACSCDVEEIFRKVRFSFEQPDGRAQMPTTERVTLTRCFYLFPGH
Experimental: as §1
Caspase-1 Inhibitor Screening Kit (BioVision #K151-100)
as §2, §3, §4, §5, §6

[6] = oral administration, 0.5-6 h samples
[7] = different doses, oral twice a day for 28 days, vs model group

T1 sequence (Q14790 217-374 limits assumed): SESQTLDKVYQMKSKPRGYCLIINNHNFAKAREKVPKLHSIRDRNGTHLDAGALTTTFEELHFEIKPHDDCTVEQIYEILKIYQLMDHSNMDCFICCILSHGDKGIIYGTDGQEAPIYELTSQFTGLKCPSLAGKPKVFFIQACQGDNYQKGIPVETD
T1 sequence (Q14790 385-479 limits assumed): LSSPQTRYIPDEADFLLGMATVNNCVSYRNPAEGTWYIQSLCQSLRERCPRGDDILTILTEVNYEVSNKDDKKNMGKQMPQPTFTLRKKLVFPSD

SMILES: C[C@H](NC(=O)c1cc(-c2ccccc2Cl)on1)C(=O)N[C@@H](CC(=O)O)C(=O)COc1c(F)c(F)cc(F)c1F [Example 1, (S)-3-((S)-2-(5-(2-chlorophenyl)isoxazol-3-carboxamido)propionamido)-4-oxo-5-(2,3,5,6-tetrafluorophenoxy)pentanoic Acid]
- Liver drug concentration ([1]; 0.5 h after oral (intragastric) administration): 46440 nmol/kg
- Liver drug concentration ([1]; 2 h after oral (intragastric) administration): 3126 nmol/kg
- Liver drug concentration ([1]; 6 h after oral (intragastric) administration): 3252 nmol/kg
- concentration at 0.5 h ([1]; male, C57BL/6J, plasma, 0.5 h after oral (intragastric) administration, read-out: Plasma drug concentration): 2520 nM
- concentration at 2 h ([1]; male, C57BL/6J, plasma, 2 h after oral (intragastric) administration, read-out: Plasma drug concentration): 112 nM
- concentration at 6 h ([1]; male, C57BL/6J, plasma, 6 h after oral (intragastric) administration, read-out: Plasma drug concentration): 12.8 nM
- Liver exposure compared to IDN-6556 ([1]; oral administration): about 5 times
- liver drug-time curve (area) [1, 6]: 48.442 µM·h
- plasma drug-time curve (area) [1, 6]: 1.795 µM·h
- Ballooning change score ([2]; 3 mg/kg): 0.00 ± 0.00
- Inflammatory cell infiltration ([2]; 3 mg/kg): 1.13 ± 0.06
- Percentage of liver fibrosis ([2]; 3 mg/kg): 1.61 ± 0.05^$$ %
- Total score of liver injury ([2]; 3 mg/kg): 1.13 ± 0.06
- Ballooning change score ([2]; 10 mg/kg): 0.00 ± 0.00
- Inflammatory cell infiltration ([2]; 10 mg/kg): 1.15 ± 0.07
- Percentage of liver fibrosis ([2]; 10 mg/kg): 1.62 ± 0.07^$ %
- Total score of liver injury ([2]; 10 mg/kg): 1.20 ± 0.07
- Ballooning change score ([2]; 20 mg/kg): 0.00 ± 0.00
- Inflammatory cell infiltration ([2]; 20 mg/kg): 1.10 ± 0.04
- Percentage of liver fibrosis ([2]; 20 mg/kg): 1.69 ± 0.10%
- Total score of liver injury ([2]; 20 mg/kg): 1.12 ± 0.04
- Effect on CCl4-induced liver tissue damage (in words) [2, 7]: significantly improve; also recorded: significantly inhibit
- Inhibitory effect on liver fibrosis (in words) [2, 7]: significantly inhibited; also recorded: significant inhibitory effect

SMILES: C[C@H](NC(=O)c1ncc(-c2ccccc2)s1)C(=O)N[C@@H](CC(=O)O)C(=O)COc1c(F)c(F)cc(F)c1F [Example 2]
- IC50 [3]: 24.6 nM
- IC50 [4]: 29.6 nM
- IC50 [5]: 5.3 nM

SMILES: C[C@H](NC(=O)c1c[nH]c(-c2ccccc2)n1)C(=O)N[C@@H](CC(=O)O)C(=O)COc1c(F)c(F)cc(F)c1F [Example 3]
- IC50 [3]: 25.9 nM
- IC50 [4]: 24 nM
- IC50 [5]: 4.8 nM

SMILES: C[C@H](NC(=O)c1cc(-c2ccccc2)n[nH]1)C(=O)N[C@@H](CC(=O)O)C(=O)COc1c(F)c(F)cc(F)c1F [Example 4]
- IC50 [3]: 11.7 nM
- IC50 [4]: 11.4 nM
- IC50 [5]: 4.1 nM

SMILES: C[C@H](NC(=O)c1cc(-c2ccccc2F)n[nH]1)C(=O)N[C@@H](CC(=O)O)C(=O)COc1c(F)c(F)cc(F)c1F [Example 5]
- IC50 [3]: 16.8 nM
- IC50 [4]: 13.7 nM
- IC50 [5]: 3.9 nM

SMILES: C[C@H](NC(=O)c1cc(-c2ccc(Cl)cc2)on1)C(=O)N[C@@H](CC(=O)O)C(=O)COc1c(F)c(F)cc(F)c1F [Example 6]
- IC50 [3]: 19.9 nM
- IC50 [4]: 24.5 nM
- IC50 [5]: 6 nM
